# Measured values: US20140323300A1, “HERBICIDAL COMPOUNDS” (SYNGENTA LIMITED, priority 2011, published 2014)
# Experiments:
# Type in all cases: in vivo
# [1] = system: Alopecurus myosuroides (ALOMY); assay: Post-emergence glasshouse herbicide test; details: post-emergence (sprayed after 8 days cultivation), 1000 g/h, evaluated after 13 days, five point scale
# Procedure: (§1) Seeds of a variety of test species are sown in standard soil in pots (Alopecurus myosuroides (ALOMY), Setaria faberi (SETFA), Echinochloa crus-galli (ECHCG), Solanum nigrum (SOLNI), Amaranthus retoflexus (AMARE), Ipomoea hederacea (IPOHE)). After cultivation for one day (pre-emergence) or after 8 days cultivation (post-emergence) under controlled conditions in a glasshouse (at 24/16° C., day/night; 14 hours light; 65% humidity), the plants are sprayed with an aqueous spray solution derived from the formulation of the technical active ingredient in acetone/water (50:50) solution containing 0.5% Tween 20 (polyoxyethelyene sorbitan monolaurate, CAS RN 9005-64-5). Compounds are applied at 1000 g/h. The test plants are then grown in a glasshouse under controlled conditions in a glasshouse (at 24/16° C., day/night; 14 hours light; 65% humidity) and watered twice daily. After 13 days for pre and post-emergence, the test is evaluated for the percentage damage caused to the plant. The biological activities are shown in the following table on a five point scale (5=80-100%; 4=60-79%; 3=40-59%; 2=20-39%; 1=0-19%).
# [2] = system: Amaranthus retoflexus (AMARE); assay: Post-emergence glasshouse herbicide test; details: post-emergence (sprayed after 8 days cultivation), 1000 g/h, evaluated after 13 days, five point scale
# Procedure: as §1
# [3] = system: Echinochloa crus-galli (ECHCG); assay: Post-emergence glasshouse herbicide test; details: post-emergence (sprayed after 8 days cultivation), 1000 g/h, evaluated after 13 days, five point scale
# Procedure: as §1
# [4] = system: Ipomoea hederacea (IPOHE); assay: Post-emergence glasshouse herbicide test; details: post-emergence (sprayed after 8 days cultivation), 1000 g/h, evaluated after 13 days, five point scale
# Procedure: as §1
# Setaria faberi (SETFA) [5] = assay: Post-emergence glasshouse herbicide test; details: post-emergence (sprayed after 8 days cultivation), 1000 g/h, evaluated after 13 days, five point scale
# Procedure: as §1
# Solanum nigrum (SOLNI) [6] = assay: Post-emergence glasshouse herbicide test; details: post-emergence (sprayed after 8 days cultivation), 1000 g/h, evaluated after 13 days, five point scale
# Procedure: as §1
# [7] = system: Alopecurus myosuroides (ALOMY); assay: Pre-emergence glasshouse herbicide test; details: pre-emergence (sprayed after one day cultivation), 1000 g/h, evaluated after 13 days, five point scale
# Procedure: as §1
# [8] = system: Amaranthus retoflexus (AMARE); assay: Pre-emergence glasshouse herbicide test; details: pre-emergence (sprayed after one day cultivation), 1000 g/h, evaluated after 13 days, five point scale
# Procedure: as §1
# [9] = system: Echinochloa crus-galli (ECHCG); assay: Pre-emergence glasshouse herbicide test; details: pre-emergence (sprayed after one day cultivation), 1000 g/h, evaluated after 13 days, five point scale
# Procedure: as §1
# [10] = system: Ipomoea hederacea (IPOHE); assay: Pre-emergence glasshouse herbicide test; details: pre-emergence (sprayed after one day cultivation), 1000 g/h, evaluated after 13 days, five point scale
# Procedure: as §1
# Setaria faberi (SETFA) [11] = assay: Pre-emergence glasshouse herbicide test; details: pre-emergence (sprayed after one day cultivation), 1000 g/h, evaluated after 13 days, five point scale
# Procedure: as §1
# Solanum nigrum (SOLNI) [12] = assay: Pre-emergence glasshouse herbicide test; details: pre-emergence (sprayed after one day cultivation), 1000 g/h, evaluated after 13 days, five point scale
# Procedure: as §1
SMILES,"percentage damage caused to the plant, POST Application ALOMY [1]","percentage damage caused to the plant, POST Application AMARE [2]","percentage damage caused to the plant, POST Application ECHCG [3]","percentage damage caused to the plant, POST Application IPOHE [4]","percentage damage caused to the plant, POST Application SETFA (Setaria faberi (SETFA) [5])","percentage damage caused to the plant, POST Application SOLNI (Solanum nigrum (SOLNI) [6])","percentage damage caused to the plant, PRE Application ALOMY [7]","percentage damage caused to the plant, PRE Application AMARE [8]","percentage damage caused to the plant, PRE Application ECHCG [9]","percentage damage caused to the plant, PRE Application IPOHE [10]","percentage damage caused to the plant, PRE Application SETFA (Setaria faberi (SETFA) [11])","percentage damage caused to the plant, PRE Application SOLNI (Solanum nigrum (SOLNI) [12])"
C=Cc1cnn(-c2ccc(S(C)(=O)=O)c(C3=NOCC3)c2C)c(=O)c1O [Compound 1.006],4 (4=60-79%),5 (5=80-100%),5 (5=80-100%),5 (5=80-100%),5 (5=80-100%),5 (5=80-100%),1 (1=0-19%),5 (5=80-100%),5 (5=80-100%),4 (4=60-79%),4 (4=60-79%),5 (5=80-100%)
C=C(C)c1cnn(-c2ccc(S(C)(=O)=O)c(C3=NOCC3)c2C)c(=O)c1O [Compound 1.007],5 (5=80-100%),5 (5=80-100%),5 (5=80-100%),5 (5=80-100%),5 (5=80-100%),5 (5=80-100%),3 (3=40-59%),5 (5=80-100%),5 (5=80-100%),5 (5=80-100%),3 (3=40-59%),4 (4=60-79%)
Cc1c(-n2nccc(O)c2=O)ccc(S(C)(=O)=O)c1C1=NOCC1 [Compound 1.008],5 (5=80-100%),5 (5=80-100%),5 (5=80-100%),5 (5=80-100%),5 (5=80-100%),5 (5=80-100%),2 (2=20-39%),5 (5=80-100%),5 (5=80-100%),5 (5=80-100%),5 (5=80-100%),5 (5=80-100%)
Cc1c(-n2ncc(C#N)c(O)c2=O)ccc(S(C)(=O)=O)c1C1=NOCC1 [Compound 1.009],1 (1=0-19%),5 (5=80-100%),5 (5=80-100%),5 (5=80-100%),5 (5=80-100%),5 (5=80-100%),1 (1=0-19%),5 (5=80-100%),5 (5=80-100%),4 (4=60-79%),4 (4=60-79%),4 (4=60-79%)
Cc1c(-n2ncc(C(C)C)c(O)c2=O)ccc(S(C)(=O)=O)c1C1=NOCC1 [Compound 1.010],5 (5=80-100%),5 (5=80-100%),5 (5=80-100%),5 (5=80-100%),5 (5=80-100%),5 (5=80-100%),3 (3=40-59%),5 (5=80-100%),3 (3=40-59%),1 (1=0-19%),2 (2=20-39%),1 (1=0-19%)
